In patent publication US7674471B2, “Topical composition, topical composition precursor, and methods for manufacturing and using” (Skinvisible Pharmaceuticals, Inc., priority 2001, dated 2010):

Assay: solubility in water or solvents
From the text: In addition, β-cyclodextrin is a relatively small molecule with all of its —OH groups lying on the outside of the molecule. If all of the —OH groups formed complexes with pyrrolidone groups, none would be available to promote water solubility.

Dextran-70
solubility in water: extremely soluble in water

Polyvinylpyrrolidone [PVP]
solubility in water: quite water soluble
